Molecular target: T1, Rho kinase II (ROKα) (Rattus norvegicus, UniProt Q62868)
T1 construct: purchased Upstate Biotechnology
Test: Inhibition of recombinant Rho kinase II (ROKα), 33P phosphate uptake into S6 substrate peptide
Assay type: biochemical
Details: recombinant Rho kinase II (Upstate Biotechnology), S6 phosphate-acceptor peptide, 33P-labelled ATP, 20 min at 37° C.
Protocol: The inhibition of the enzyme is investigated in an in vitro assay with recombinant Rho kinase II. The vessel-relaxing action is determined using phenylephrin-induced contractions of isolated rings of the saphenous artery of rabbits.
Inhibition of Recombinant Rho Kinase II (ROKα)
The activity of Rho kinase is determined by the uptake of ^33P phosphate into a substrate peptide. To this end, commercially available Rho kinase II (Upstate Biotechnology) is pre-incubated at 37° C. in the presence of the S6 phosphate-acceptor peptide with the test substances or a solvent control for 10 min. The kinase reaction is then started by addition of ^33P-labelled ATP. After 20 min at 37° C., the reaction is stopped by addition of H3PO4. Aliquots are pipetted onto filters and the filters are washed and then covered with scintillator. The radioactivity of the ^33P-labelled peptides bound to the filter is measured in a Micro-Beta counter. The IC50 value corresponds to the concentration of a test substance at which the Rho-kinase-catalysed uptake of ^33P into the peptide is inhibited by 50%, compared to a solvent control.

T1 sequence (Q62868 whole entry): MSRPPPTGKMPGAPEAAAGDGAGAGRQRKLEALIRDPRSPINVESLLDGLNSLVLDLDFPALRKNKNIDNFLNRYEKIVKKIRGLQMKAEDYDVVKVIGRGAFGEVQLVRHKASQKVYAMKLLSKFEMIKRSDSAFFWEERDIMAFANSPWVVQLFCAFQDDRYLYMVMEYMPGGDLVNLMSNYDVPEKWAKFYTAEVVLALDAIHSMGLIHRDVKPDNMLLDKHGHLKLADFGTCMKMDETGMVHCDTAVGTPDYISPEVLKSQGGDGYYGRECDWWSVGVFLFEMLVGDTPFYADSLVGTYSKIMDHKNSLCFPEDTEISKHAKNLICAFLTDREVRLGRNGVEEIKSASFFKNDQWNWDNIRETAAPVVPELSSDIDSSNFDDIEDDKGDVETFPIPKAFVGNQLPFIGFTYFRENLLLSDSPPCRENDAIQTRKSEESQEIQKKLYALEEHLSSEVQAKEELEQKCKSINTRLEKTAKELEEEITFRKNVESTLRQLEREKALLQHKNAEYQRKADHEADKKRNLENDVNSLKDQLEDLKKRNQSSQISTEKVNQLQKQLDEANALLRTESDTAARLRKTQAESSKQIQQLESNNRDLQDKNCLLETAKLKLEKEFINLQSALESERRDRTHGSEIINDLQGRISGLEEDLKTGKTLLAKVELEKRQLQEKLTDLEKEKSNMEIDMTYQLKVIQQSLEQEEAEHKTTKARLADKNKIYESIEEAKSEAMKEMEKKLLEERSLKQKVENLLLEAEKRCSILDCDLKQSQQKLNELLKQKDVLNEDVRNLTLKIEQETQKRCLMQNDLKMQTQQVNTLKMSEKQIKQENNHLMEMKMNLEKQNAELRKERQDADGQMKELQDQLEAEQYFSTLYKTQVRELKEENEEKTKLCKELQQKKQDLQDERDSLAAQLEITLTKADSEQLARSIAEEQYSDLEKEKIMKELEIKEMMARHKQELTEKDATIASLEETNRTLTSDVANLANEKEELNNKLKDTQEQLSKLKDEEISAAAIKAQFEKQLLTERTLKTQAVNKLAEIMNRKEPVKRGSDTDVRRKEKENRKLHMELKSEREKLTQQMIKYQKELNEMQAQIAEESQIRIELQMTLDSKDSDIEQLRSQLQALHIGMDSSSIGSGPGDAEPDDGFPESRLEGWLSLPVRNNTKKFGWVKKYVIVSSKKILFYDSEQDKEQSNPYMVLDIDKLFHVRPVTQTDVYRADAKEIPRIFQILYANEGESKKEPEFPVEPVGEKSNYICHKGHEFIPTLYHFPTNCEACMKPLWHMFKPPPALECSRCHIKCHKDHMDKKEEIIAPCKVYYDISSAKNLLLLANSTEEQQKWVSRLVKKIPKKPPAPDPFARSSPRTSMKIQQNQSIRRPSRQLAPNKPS

IC50 [nM] | SMILES
49 | CC(C)(C)NCc1ccc(C(=O)Nc2ccc(Oc3ccnc4[nH]ccc34)c(F)c2)cc1 [Example 15]
27 | CN(C)CCNC(=O)Nc1ccc(Oc2ccnc3[nH]ccc23)c(F)c1 [Example 40]
20 | CN(C)CCOC(=O)Nc1ccc(Oc2ccnc3[nH]ccc23)c(F)c1 [Example 41]
12 | Cc1c[nH]c2nccc(Oc3ccc(NC(=O)CNC(C)(C)C)cc3F)c12 [Example 23]

Source: US20080249105A1, “Pyrrolopyridine-Substituted Benzol Derivatives for Treating Cardiovascular Diseases” (Bayer Healthcare AG, priority 2003, published 2008)
